{"source": "patent US20240398833A1", "about": "“PHARMACEUTICAL COMPOSITION CONTAINING 27-HYDROXYCHOLESTEROL FOR PREVENTING OR TREATING MYELOID LEUKEMIA” (PUSAN NATIONAL UNIVERSITY INDUSTRY-UNIVERSITY COOPERATION …, priority 2021, published 2024)", "key": {"[1]": {"test_system": "myeloid leukemia cells (HL60, KG1a, K562 cells)", "assay": "Differentiation marker CD11b staining in leukemia cell lines", "type": "cell-based", "details": "compared to control cells", "description": "(§1) Next, the apoptosis and the ROS proportions were analyzed through DCFDA staining. In addition, to confirm the effect of 27-Hydroxycholesterol on the differentiation of leukemia cell lines, a differentiation marker, CD11b was stained and analyzed using FACScanto 2 equipment. As a result, it was confirmed that the ROS proportion was high in the leukemia cell line treated with 27-hydroxycholesterol, which was illustrated in FIG. 4 [Con: untreated leukemia cell line, Chol: leukemia cell line treated with cholesterol, 27HC: leukemia cell line treated with 27-hydroxycholesterol]."}, "[2]": {"test_system": "hematopoietic stem and progenitor cells (HSPC)", "type": "cell-based, mouse", "description": "The bone marrow was extracted from the mouse tibia and femur using an FACS staining buffer (phosphate-buffered saline, 2% FBS, penicillin/streptomycin), and then bone marrow cells were extracted by lysing red blood cells using an ACK lysis buffer and treated with 0.62 μM or 6.2 μM 27-hydroxycholesterol for 24 or 48 hours. After treatment, antibodies were attached and the cells were analyzed using FACSCanto2 equipment. As a result, the effect of 27-hydroxycholesterol on decreased hematopoietic stem and progenitor cells (HSPC) was confirmed, and illustrated in FIGS. 1 and 11 [Con: untreated mouse bone marrow cells, Chol: mouse bone marrow cells treated with cholesterol, 27HC: mouse bone marrow cells treated with 27-hydroxycholesterol]."}, "[3]": {"test_system": "hematopoietic stem and progenitor cells (HSPC)", "assay": "Apoptosis (Annexin V / 7AAD, FACS) in mouse bone marrow cells", "type": "cell-based", "details": "6.2 μM, 48 hours, compared to control cells", "description": "(§2) Bone marrow cells were extracted from the mouse tibia and femur and treated with 6.2 μM of 27-hydroxycholesterol for 48 hours. In order to confirm apoptosis, the cells treated with 27-hydroxycholesterol were collected, the cells were dissolved in a 1× Annexin binding buffer, added with Annexin V and 7AAD, and analyzed using FACScanto2 equipment, and in order to confirm reactive oxygen species, the cells were dissolved in an FACS staining buffer, added with DCFDA, stained at 37° C. for 30 minutes, and analyzed using FACScanto2 equipment. As a result, an effect of 27-hydroxycholesterol on increased apoptosis and reactive oxygen species (ROS) in hematopoietic stem and progenitor cells (HSPC) was confirmed and illustrated in FIG. 2 [Con or Ctrl: mouse bone marrow cells untreated, Chol: mouse bone marrow cells treated with cholesterol, 27HC: mouse bone marrow cells treated with 27-hydroxycholesterol]."}, "[4]": {"test_system": "hematopoietic stem and progenitor cells (HSPC)", "assay": "Reactive oxygen species (DCFDA staining, FACS) in mouse bone marrow cells", "type": "cell-based", "description": "as §2"}, "[5]": {"test_system": "myeloid leukemia cells (HL60, KG1a, K562 cells)", "assay": "Apoptosis (Annexin V / 7AAD, FACS) in leukemia cell lines", "type": "cell-based", "details": "6.2 μM, 48 hours, compared to control cells", "description": "(§3) Acute myeloid leukemia cell lines HL60 and KG1 α, and chronic myeloid leukemia cell line, K562 cells were treated with 6.2 μM of 27-hydroxycholesterol for 48 hours and then strained with trypan blue, and then the cell count was confirmed. In addition, the cells were added with Annexin V and 7AAD, and the apoptosis was analyzed using FACScanto2 equipment. As a result, it was confirmed that compared to untreated cells (Con) and a cholesterol-treated leukemia cell line (Chol), 27-hydroxycholesterol increased the apoptosis in a leukemia cell line (27HC) to reduce the number of cells, which was illustrated in FIG. 3 [Con: untreated leukemia cell line, Chol: leukemia cell line treated with cholesterol, 27HC: leukemia cell line treated with 27-hydroxycholesterol]."}, "[6]": {"test_system": "myeloid leukemia cells (HL60, KG1a, K562 cells)", "assay": "ROS (DCFDA staining) in leukemia cell lines", "type": "cell-based", "details": "compared to control cells", "description": "as §1"}, "[7]": {"test_system": "myeloid leukemia cells (HL60, KG1a, and K562 cells)", "assay": "Leukemia cell count by trypan blue", "type": "cell-based", "details": "6.2 μM, 48 hours; negative control HEK293T cells", "description": "as §3"}, "[8]": {"test_system": "HL60 cells and K562 cells", "assay": "Leukemia cell growth comparison, cell count by trypan blue", "type": "cell-based", "details": "6.2 μM, 48 hours; for number of cells in leukemia cell lines: HL60 and K562", "description": "An acute myeloid leukemia cell line HL60, and a chronic myeloid leukemia cell line, K562 cells were treated with 6.2 μM of cholesterol, 7α-hydroxycholesterol, and 27-hydroxycholesterol for 48 hours and then strained with trypan blue, and then the cell count was confirmed."}, "[9]": {"test_system": "hematopoietic stem cells", "assay": "Bone marrow transplantation of ex vivo treated donor CD45.1 bone marrow cells", "type": "in vivo, mouse", "description": "Bone marrow cells were taken out ex vivo, treated with 6.2 μM of 27-hydroxycholesterol (27-HC), and then subjected to bone marrow transplantation.\nSpecifically, referring to FIG. 9A, BM cells were extracted from the tibia and femur of a donor CD45.1 mouse, and then treated with vehicle, 6.2 μM cholesterol, and 6.2 μM 27-hydroxycholesterol for 48 hours. Then, bone marrow transplantation was performed by mixing the bone marrow cells of the CD45.2 mouse in a 1:1 ratio and injecting the mixture into the caudal vein of a recipient CD45.2 mouse that had been irradiated with 4 Gy. One month later, blood was extracted from the veins of the recipient mouse that had received bone marrow transplantation, and the cell proportion of the donor mouse was analyzed. Blood was extracted from the mouse jugular vein and added in 10 mM EDTA to prevent blood coagulation, and added in an ACK lysis buffer to lyse red blood cells. It was confirmed that after attaching CD45.1-APC and CD45.2-FITC antibodies, donor mouse CD45.1 cells were analyzed using FACSCanto2 equipment, and 27-hydroxycholesterol suppressed the regeneration and proliferation of hematopoietic stem cells, as illustrated FIGS. 9A to 9E."}, "[10]": {"test_system": "ER stress response pathway", "assay": "Western blot of ER stress proteins (pIRE1α, IRE1α, PERK, ATF4, elF2α)", "type": "cell-based"}, "[11]": {"test_system": "LKS cells and hematopoietic progenitor cells (HPC)", "assay": "qRT-PCR gene expression in sorted LKS cells and hematopoietic progenitor cells", "type": "cell-based, mouse", "details": "6.2 μM, 48 hours", "description": "Bone marrow cells were extracted from the mouse tibia and femur and treated with 6.2 μM of 27-hydroxycholesterol for 48 hours. After treatment, the cells were added with PE-Cy5-CD3, PE-Cy5-CD4, PE-Cy5-CD8, PE-Cy5-CD19, PE-Cy5-B220, PE-Cy5-GR1, PE-Cy5-Ter119, PE-Sca1, APC-Add cKit, PE-Cy7-CD150, and APC-Cy7-CD48 antibodies, stained for 30 minutes at 4° C., and then LKS (Lin-Sca1^+cKit^+) and hematopoietic progenitor cells (Lin^−Sca1^+cKit^+CD48^+) were separated using FACSAria. Thereafter, RNA was extracted from the cells using an RNA extraction kit, and cDNA was synthesized from RNA using a cDNA synthesis kit. The synthesized cDNA was subjected to qRT-PCR using primers related to apoptosis and ER stress and SYBR-green. As a result, it was confirmed that gene expression related to apoptosis and ER stress was increased according to treatment of 27-hydroxycholesterol in LKS and hematopoietic progenitor cells, which were immature cells, compared to total bone marrow cells, as illustrated in FIG. 6."}}, "note": "“Also recorded” adds a separate entry of the source."}
{"smiles": "C[C@@H](CO)CCC[C@@H](C)[C@H]1CC[C@H]2[C@@H]3CC=C4C[C@@H](O)CC[C@]4(C)[C@H]3CC[C@]12C", "note": "[27-hydroxycholesterol]", "values": [{"measurement": "differentiation (CD11b+) of myeloid leukemia cells", "setting": "[1]", "value": "increased"}, {"measurement": "cytotoxic effect (conclusion of Example 1)", "setting": "[2]", "value": "cytotoxic effect specifically on hematopoietic stem and progenitor cells"}, {"measurement": "effect on LK, LKS, HPC, HSC, monocytes, neutrophils, B cells, T cells", "setting": "[2]; 0.62 μM, 24 hours, FIG. 11B", "value": "no effect on all cells"}, {"measurement": "number of LK cells, LKS cells, HPC and HSC", "setting": "[2]; BM cells treated for 24 hours or 48 hours, FIG. 11A", "value": "decreased"}, {"measurement": "proportions of LKS cells, hematopoietic progenitor cells and hematopoietic stem cells", "setting": "[2]; BM cells treated with 27-hydroxycholesterol, FIG. 1A/1B", "value": "decreased"}, {"measurement": "proportions of common myeloid, granulocytic macrophage, megakaryocytic erythroid and common lymphocytic progenitor cells", "setting": "[2]; BM cells, FIG. 1C/1D", "value": "decreased"}, {"measurement": "proportions of monocytes, neutrophils, B cells and T cells", "setting": "[2]; BM cells, FIG. 1E/1F", "value": "no change"}, {"measurement": "proportions of LKS cells, HPC and HSC", "setting": "[2]; Example 2, 6.2 μM, 48 hours, compared to control cells, FIG. 2F", "value": "decreased"}, {"measurement": "cKit+ cells and CD48+ cells", "setting": "[2]; FIG. 11C", "value": "reduces"}, {"measurement": "apoptosis in LKS cells, HPC and HSC", "setting": "[3]", "value": "increased"}, {"measurement": "ROS in LKS cells, HPC and HSC", "setting": "[4]; 6.2 μM, 48 hours, compared to control cells", "value": "increased"}, {"measurement": "apoptosis of myeloid leukemia cells", "setting": "[5]", "value": "increased"}, {"measurement": "ROS proportion of myeloid leukemia cells", "setting": "[6]", "value": "increased and high"}, {"measurement": "number of myeloid leukemia cells (cell count)", "setting": "[7]", "value": "reduce; also recorded: significantly decreased"}, {"measurement": "growth of leukemia cells (HL60 cells and K562 cells)", "setting": "[8]; FIG. 8A/8B", "value": "inhibited; also recorded: minimal; also recorded: suppressed"}, {"measurement": "number of cells in leukemia cell lines", "setting": "[8]", "value": "decreased"}, {"measurement": "proportions of donor monocytes, B cells and T cells in blood of recipient mouse", "setting": "[9]; 6.2 μM, 48 hours ex vivo, after transplantation, FIG. 9C", "value": "decreased"}, {"measurement": "engraftment ability (donor CD45.1 cells) in bone marrow cells", "setting": "[9]; 6.2 μM, 48 hours ex vivo, after transplantation, FIG. 9D", "value": "decreased"}, {"measurement": "proportions of donor LK cells, LKS cells, HPC and HSC in bone marrow cells of recipient mouse", "setting": "[9]; 6.2 μM, 48 hours ex vivo, after transplantation, FIG. 9E", "value": "decreased"}, {"measurement": "engraftment ability (donor CD45.1 cells) in blood", "setting": "[9]; 6.2 μM, 48 hours ex vivo, one month after transplantation, FIG. 9B", "value": "decreased"}, {"measurement": "regeneration and proliferation of hematopoietic stem cells", "setting": "[9]; donor BM cells treated ex vivo with 6.2 μM for 48 hours, then transplanted", "value": "suppressed"}, {"measurement": "ER stress (amount of ER stress protein)", "setting": "[10]; HL60 cells, 48 hours", "value": "increased"}, {"measurement": "ER stress response pathway", "setting": "[10]; THP1 cells, FIG. 5A", "value": "increases"}, {"measurement": "gene expression related to apoptosis and ER stress", "setting": "[11]; LKS and HPC compared to total bone marrow cells", "value": "increased"}, {"measurement": "expression of Bax gene related to apoptosis", "setting": "[11]; LKS cells and HPC", "value": "increased"}, {"measurement": "expression of Chop, Ire1α and Xbp1s genes related to ER stress", "setting": "[11]; LKS cells and HPC", "value": "increased"}, {"measurement": "expression of Era gene related to cancer cell growth", "setting": "[11]; LKS cells and HPC", "value": "increased"}]}
{"smiles": "CC(=O)N[C@@H](CS)C(=O)O", "note": "[N-acetylcysteine, reference compound]", "values": [{"measurement": "decreased proportions of LKS cells, HPC and HSC by 27-hydroxycholesterol, on treating NAC", "setting": "[2]; 27-hydroxycholesterol plus antioxidant NAC, FIG. 2F", "value": "suppressed"}, {"measurement": "ROS in LKS cells, HPC and HSC treated with 27-hydroxycholesterol, on treating NAC", "setting": "[4]; 27-hydroxycholesterol plus antioxidant NAC, FIG. 2E", "value": "increased"}]}
{"smiles": "CC(C)CCC[C@@H](C)[C@H]1CC[C@H]2[C@@H]3[C@H](O)C=C4C[C@@H](O)CC[C@]4(C)[C@H]3CC[C@]12C", "note": "[7α-hydroxycholesterol, reference compound]", "values": [{"measurement": "effect on chronic myeloid leukemia cells", "setting": "[8]", "value": "no effect"}, {"measurement": "number of cells in leukemia cell lines", "setting": "[8]", "value": "did not have a significant effect"}, {"measurement": "effect on acute myeloid leukemia cell lines", "setting": "[8]; relative to 27-hydroxycholesterol", "value": "weaker effect"}]}
